Experimental findings from patent publication US10968193B2, “Antidiabetic bicyclic compounds” (Merck Sharp & Dohme Corp., priority 2014, dated 2021) are described below.

By EC50 is commonly meant the concentration at which the effect is half-maximal. Low values mean an effect from little substance, high ones a need for much substance.

This assay addresses T1, human GPR40 (Homo sapiens, UniProt O14842).
T1 construct: expressed in transfected cells; host or cells: HEK cells stably expressing the aequorin reporter
The experiment in a line: Inositol Phosphate Turnover (IP1) Assay 3. It is filed as cell-based. Conditions: HEK cells stably expressing human GPR40. The protocol:
Human and mouse GPR40 stable cell-lines were generated in CHO cells stably expressing NFAT BLA (Beta-lactamase). A human GPR40 stable cell-line was generated in HEK cells stably expressing the aequorin expressing reporter. The expression plasmids were transfected using lipofectamine (Life Technologies) following manufacturer's instructions. Stable cell-lines were generated following drug selection.
Inositol Phosphate Turnover (IP1) Assay 3:
The assay was performed in 384-well format. HEK cells stably expressing human GPR40 were plated at 7500 cells per well in growth medium (DMEM/10% fetal calf serum). Cell plates were then incubated 16 hours at 37 degrees in a 5% CO2 incubator.
Measurement of Inositol Phosphate Turnover (IP) was performed using the CisBio IP-One kit (Part number 62IPAPEB). After the 16 hour incubation, the growth media was removed by centrifugation using the BlueWasher (AusWasher GUI Ver. v1.0.1.8) Protocol #21—“Light Dry” and 10 ul of stimulation buffer (prepared as described in the kit) was added to each well. In a separate plate, compounds were diluted in DMSO (200-fold over the final concentration in the assay well) and 50 nl was acoustically transferred to the appropriate well in the assay cell plate. The plates were then incubated for 60 minutes at 37 degrees in a 5% CO2 incubator. 10 ul of detection buffer (also prepared as described in the IP-One kit) was added to each well and the plates were incubated at rt for 60 minutes in the dark. The plates were then read in a Perkin Elmer EnVision or equivalent reader able to measure FRET. Fluorescent ratio of emission at 665 and 620 nm was then converted to IP1 concentration by back calculating from an IP1 standard curve prepared at the time of the assay. Data is normalized to % activity using a reference compound and EC50s determined using a standard 4-parameter fit.

T1 sequence (O14842 whole entry): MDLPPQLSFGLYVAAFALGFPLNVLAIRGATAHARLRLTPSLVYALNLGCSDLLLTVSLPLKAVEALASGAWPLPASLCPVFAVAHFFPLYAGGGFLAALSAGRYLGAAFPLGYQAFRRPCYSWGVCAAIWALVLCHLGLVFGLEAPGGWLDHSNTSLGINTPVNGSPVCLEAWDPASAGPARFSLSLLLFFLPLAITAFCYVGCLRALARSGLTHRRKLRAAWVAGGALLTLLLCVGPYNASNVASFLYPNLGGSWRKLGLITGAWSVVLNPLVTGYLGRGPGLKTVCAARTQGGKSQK

`CCOc1cc(-c2ccc(C3CCc4ccc([C@H](C5CC5)[C@H](C)C(=O)O)cc4O3)cc2CN(CC)CC)c(F)cn1` (single isomer, unassigned) [Example 171, (2S, 3R)-3-cyclopropyl-3-((R or S)-2-(3-((diethylamino)methyl)-4-(2-ethoxy-5-fluoropyridin-4-yl)phenyl)chroman-7-yl)-2-methylpropanoic acid] had an EC50 of 2.5 nM.

`CCOc1cc(-c2ccc(C3CCc4ccc([C@H](C5CC5)[C@H](C)C(=O)O)cc4O3)cc2CN(CC)CC)c(F)cn1` (single isomer, unassigned) [Example 172, (2S, 3R)-3-cyclopropyl-3-((S or R)-2-(3-((diethylamino)methyl)-4-(2-ethoxy-5-fluoropyridin-4-yl)phenyl)chroman-7-yl)-2-methylpropanoic acid] gave a half-maximal effective concentration (EC50) of 2.3 nM.

Compound `CCOc1cc(-c2ccc(C3CCc4ccc([C@H](C5CC5)[C@H](C)C(=O)O)cc4O3)cc2CN2CCCC2)c(F)cn1` (single isomer, unassigned) [Example 173] came in with a concentration giving a half-maximal response (EC50) of 50 nM.

For `CCOc1cc(-c2ccc(C3CCc4ccc([C@H](C5CC5)[C@H](C)C(=O)O)cc4O3)cc2CN2CCCC2)c(F)cn1` (single isomer, unassigned) [Example 174], the EC50 was determined as 27 nM.

Turning to `COc1cc(-c2ccc(C3CCc4ccc([C@H](C5CC5)[C@H](C)C(=O)O)cc4O3)cc2C(CN2CCCC2)OC)ccn1` (single isomer, unassigned) [Example 177, (2S, 3R)-3-cyclopropyl-3-((R or S)-2-(3-((R or S)-1-methoxy-2-(pyrrolidin-1-yl)ethyl)-4-(2-methoxypyridin-4-yl)phenylchroman-7-yl)-2-methylpropanoic acid], a half-maximal response (EC50) required 231 nM.

As for `COc1cc(-c2ccc(C3CCc4ccc([C@H](C5CC5)[C@H](C)C(=O)O)cc4O3)cc2C(CN2CCCC2)OC)ccn1` (single isomer, unassigned) [Example 178], the EC50 came to 136 nM.

`CCN(CC)Cc1cc(C2CCc3ccc([C@H](C4CC4)[C@H](C)C(=O)O)cc3O2)c(F)cc1-c1ccnc(OC)c1` (single isomer, unassigned) [Example 181] had a half-maximal effective concentration (EC50) of 14 nM.

`CCN(CC)Cc1cc(C2CCc3ccc([C@H](C4CC4)[C@H](C)C(=O)O)cc3O2)c(F)cc1-c1ccnc(OC)c1` (single isomer, unassigned) [Example 182] yielded a 50% effective concentration (EC50) of 16 nM.

Compound `COc1cc(-c2cc(F)c(C3CCc4ccc([C@H](C5CC5)[C@H](C)C(=O)O)cc4O3)cc2CN(C(C)C)C(C)C)ccn1` (single isomer, unassigned) [Example 183] had an EC50 of 0.35 nM. This EC50 is about 46-fold lower than that of the compound before.

`COc1cc(-c2cc(F)c(C3CCc4ccc([C@H](C5CC5)[C@H](C)C(=O)O)cc4O3)cc2CN(C(C)C)C(C)C)ccn1` (single isomer, unassigned) [Example 184] gave an EC50 of 0.73 nM.

`CCN(Cc1cc(C2CCc3ccc([C@H](C4CC4)[C@H](C)C(=O)O)cc3O2)c(F)cc1-c1ccnc(OC)c1)C(C)C` (single isomer, unassigned) [Example 185]: the EC50 was 4.4 nM.

Turning to `CCN(Cc1cc(C2CCc3ccc([C@H](C4CC4)[C@H](C)C(=O)O)cc3O2)c(F)cc1-c1ccnc(OC)c1)C(C)C` (single isomer, unassigned) [Example 186], the concentration giving a half-maximal response (EC50) turned out to be 7.9 nM.

As to `COc1cc(-c2cc(F)c(C3CCc4ccc([C@H](C5CC5)[C@H](C)C(=O)O)cc4O3)cc2CN2CCCCC23CC3)ccn1` (single isomer, unassigned) [Example 187], the 50% effective concentration (EC50) is 0.4 nM.

In turn, `COc1cc(-c2cc(F)c(C3CCc4ccc([C@H](C5CC5)[C@H](C)C(=O)O)cc4O3)cc2CN2CCCCC23CC3)ccn1` (single isomer, unassigned) [Example 188] showed a half-maximal effective concentration (EC50) of 0.7 nM.

The compound `COc1ccc(F)c(-c2ccc(C3CCc4ccc([C@H](C5CC5)[C@H](C)C(=O)O)cc4O3)cc2CN2CCCCC23CC3)n1` (single isomer, unassigned) [Example 189] returned a concentration for a half-maximal effect (EC50) of 5.1 nM.
